The NIST ThermoML archive (doi:10.1016/j.jct.2010.04.018)

Assay: cn = amount concentration of the nth substance listed, in mol/dm3
Settings: 101 kPa, Liquid; for speed of sound: Sing-around technique in a fixed-path interferometer; for mass density: Vibrating tube method

Oc1ccc(O)cc1 [1,4-benzenediol] + O
Settings | mass density, 283.15 K [kg/m3] | mass density, 293.15 K [kg/m3] | mass density, 298.15 K [kg/m3] | mass density, 303.15 K [kg/m3] | mass density, 313.15 K [kg/m3] | speed of sound, 283.15 K [m/s] | speed of sound, 293.15 K [m/s] | speed of sound, 298.15 K [m/s] | speed of sound, 303.15 K [m/s] | speed of sound, 313.15 K [m/s]
c1 = 0.011 | 1000 | 998.494 | 997.334 | 995.934 | 992.505 | 1448.2 | 1482.6 | 1496.9 | 1509.3 | 1529
c1 = 0.0342 | 1000.53 | 999.001 | 997.84 | 996.428 | 992.992 | 1449.2 | 1483.3 | 1497.5 | 1509.9 | 1529.4
c1 = 0.0554 | 1001.02 | 999.463 | 998.3 | 996.878 | 993.436 | 1450 | 1483.9 | 1498.1 | 1510.3 | 1529.8
c1 = 0.1035 | 1002.11 | 1000.5 | 999.338 | 997.892 | 994.437 | 1451.9 | 1485.2 | 1499.3 | 1511.5 | 1530.6
c1 = 0.201 | 1004.28 | 1002.58 | 1001.41 | 999.925 | 996.443 | 1455.5 | 1487.6 | 1501.8 | 1513.7 | 1532.2
c1 = 0.2996 | 1006.44 | 1004.65 | 1003.48 | 1001.95 | 998.439 | 1458.9 | 1489.8 | 1504.1 | 1515.7 | 1533.7
c1 = 0.4022 | 1008.64 | 1006.75 | 1005.59 | 1004.02 | 1000.49 | 1462.2 | 1492 | 1506.4 | 1517.8 | 1535.2

O [water] + Oc1ccccc1O
c2 = 0
Settings | mass density [kg/m3] | speed of sound [m/s]
283.15 K | 999.749 | –
293.15 K | 998.252 | –
313.15 K | 992.273 | 1528.8
